Assay [1] relates to PLD activity in T24 cells. Nature of the assay: In vivo PLD activity in T24 bladder cancer cells. Type of assay: cell-based, human. Particulars: honokiol 20 μM, 4 hr. The protocol: In FIG. 17A, T24 and Calu1 cells (obtained from the American Type Culture Collection) were plated in DMEM containing 10% serum for 48 hr and then shifted to either 10% serum or 0.5% serum overnight as indicated. Honokiol (20 μM) or control ethanol was then added for 4 hr as indicated. [^3H]-Myristate was added with the honokiol. After 4 hr, BtOH (0.7%) was added for 20 min, at which time the cells were harvested and the level of phosphatidyl-BtOH (P-Bt) was determined as in FIGS. 12A-C. The experiments shown are representative of at least two independent experiments. In FIG. 17B, T24 and Calu-1 cells were plated in DMEM with 10% serum for 48 hr then changed to DMEM containing either 10% or 0.5% serum overnight as indicated. […]
For in vivo PLD activity, cells were plated in 60 mm culture dishes in DMEM with 10% serum at a density that would allow them to grow to about 80% confluence after 2 days, then cells were shifted to DMEM containing 0.5% or 10% serum as indicated in the figure legends overnight. […] Briefly, PLD activity was measured by the release of [methyl-^3H] choline from [choline-methyl-^3H]dipalmitoyl-phosphatidylcholine. […] Free [methyl-^3H] choline was separated from precipitated lipids and proteins by centrifugation and was analyzed by liquid scintillation counting. […]

In another assay the test system is MDA-MB-231 cells. As to the kind of experiment: Cell viability (trypan blue) and PARP cleavage in MDA-MB-231 cells. To be noted: honokiol 20 μM. Type of assay: cell-based, human. The protocol: MDA-MB-231 cells were plated in DMEM with 10% serum for 48 hr then changed to DMEM with either 10% or 0.5% serum overnight as indicated. Honokiol (20 μM) or control ethanol was then added either at the time of changing media (24 hr time point), or 4 hr prior to harvesting (4 hr time point) as indicated. The cells were then examined for cell viability and PARP cleavage as described previously (Chen et al., “Alternative Phospholipase D/mTOR Survival Signal in Human Breast Cancer Cells,” Oncogene 24:672-9 (2005), which is hereby incorporated by reference in its entirety). The Western blot is representative of at least three independent experiments. The error bars for cell viability represent the standard deviation for triplicate samples from a representative experiment repeated three times.
Cell viability was determined by trypan blue exclusion. After various treatments, cells were harvested, washed, and treated with trypan blue at a concentration of 0.4% w/v. After 10 min, trypan blue uptake (dead cells) was determined by counting on a hemocytometer. Apoptosis was evaluated by examination of cleavage of the caspase 3 substrate PARP as described previously (Chen et al., “Alternative Phospholipase D/mTOR Survival Signal in Human Breast Cancer Cells,” Oncogene 24:672-9 (2005), which is hereby incorporated by reference in its entirety).
The effect of honokiol on cell viability and cleavage of the caspase 3 substrate poly-(ADP-ribose) polymerase (“PARP”)—an indicator of apoptotic cell death—was examined in the MDA-MB-231 and 786-0 cells. The effect of honokiol on cell viability and PARP cleavage in 0.5% serum was examined after 4 hr and 24 hr honokiol treatment and in 10% serum after 24 hr honokiol treatment in the MDA-MB-231 cells. […] Importantly, the cells were still viable after 4 hr of honokiol treatment—the time point used in FIGS. 12 and 13 where the effect of honokiol upon PLD activity and on S6K and 4E-BP1 phosphorylation was examined.

Molecules are shown by their SMILES.

Take `C=CCc1ccc(O)c(-c2ccc(O)c(CC=C)c2)c1` [honokiol, Honokiol]: in assay [1] (0.5% serum), the “stress-induced PLD activity” value is given as “suppressed”. In addition, the “PLD activity observed in the presence of serum” value in assay [1] (10% serum) was “little effect”. In addition, the cell viability entry in the assay on MDA-MB-231 cells (4 hr, 0.5% serum) is recorded as “still viable”. For the same compound, in the assay on MDA-MB-231 cells (24 hr, 0.5% serum), the PARP cleavage entry is on record as “increased” and the cell viability result is on record as “reduced”. In the assay with MDA-MB-231 cells (24 hr, 10% serum), the PARP cleavage increased entry is “not” and the cell viability reduced entry was “not”.

For the origin of these results see patent publication US20120301895A1, “METHODS OF MODULATING BINDING OF SON OF SEVENLESS TO PHOSPHATIDIC ACID AND IDENTIFYING COMPOUNDS THAT MODULATE SUCH BINDING” (THE RESEARCH FOUNDATION OF STATE UNIVERSITY OF NEW YORK, priority 2007, published 2012).
